# Columns and labels:
# [1] = test system: dogs with insulin-dependent diabetes mellitus (type 1 diabetes mellitus); experiment: Evaluation of lipid metabolism after administration of enavogliflozin; format: in vivo, dog; settings: after 8 weeks treatment, mean ± S.D
# Experimental: (§1) This study evaluated the safety and efficacy of enavogliflozin along with insulin therapy in dogs with insulin-dependent diabetes mellitus (type 1 diabetes mellitus) as a prospective, open-label, non-randomized, multicenter, and proof-of-concept study. The efficacy and safety of enavogliflozin were evaluated at predetermined times during the treatment period.
# (§2) Diabetic dogs meeting the following criteria were allowed to participate in a clinical trial: Small dogs under 15 years of age (less than 10 kg), medium-sized dogs under 13 years of age (11 to 22 kg), stable basal dose insulin therapy at least 1 month prior to the screening visit, post-insulin nadir (Nadir) blood glucose minimum of 200 mg/dl, and blood ketone levels less than 0.6 mmol/L.
# (§3) However, diabetic dogs meeting the following criteria were excluded: Dogs with chronic kidney disease (CKD IRIS stage >2), hypotension evaluation, administration of diuretics or related drugs, confirmed pregnancy, and taking drugs affecting the test within 14 days prior to test start.
# (§4) The study was performed for 8 weeks, and dogs participating in the clinical trial were divided into two groups, a TOD test group and a SID test group, according to the dose of enavogliflozin administered. Enavogliflozin was administered to the TOD test group and the SID test group at a dose of 0.025 mg/kg once every 3 days and once a day, respectively. For proper evaluation, the dogs were administered the drug with breakfast, and after dosing was completed, dogs underwent physical examinations such as blood pressure, blood tests and urine tests. Thereafter, researchers adjusted insulin doses to meet target blood glucose levels during monitoring (Nadir glucose levels, 80 to 150 mg/dl).
# (§5) A primary evaluation variable was whether blood fructosamine levels decreased without developing severe hypoglycemia or diabetic ketoacidosis (DKA) after the animals were randomly divided into groups. A secondary evaluation variable was a change in fasting blood glucose levels, body weight and a mean bolus dose of insulin from baseline to 8 weeks. […] The diagnosis of diabetic ketoacidosis was evaluated based on the presence of anion-gap metabolic acidosis associated with excessive ketogenesis without other causes. Safety information including data on clinical and laboratory values and side effects was collected at each study visit.
# (§6) Differences before and after drug administration within the groups were compared using the Student paired t-test or the Wilcoxon rank test. Furthermore, differences between groups after drug administration through a mixed ANOVA test were confirmed. Statistical analysis was performed with the R programming language (https://cran.r-project.org/) and GraphPad Prism version 7 (GraphPad Software, Inc., La Jolla, California). A p-value less than 0.05 was considered statistically significant.
# Blood cholesterol was measured to confirm the effect of enavogliflozin on lipid metabolism. Changes in triglycerides and total cholesterol (T-Chol) were not statistically significant. […] In Table 5, all values are expressed as mean±S.D, and p-values less than 0.05 were considered statistically significant.
# [2] = test system: dogs with insulin-dependent diabetes mellitus (type 1 diabetes mellitus); experiment: Evaluation of metabolic acidosis after administration of enavogliflozin; format: in vivo, dog; settings: for Anion Gap / HCO3 / Ketone (blood) / LDH / pH (venous blood gas): after 8 weeks treatment, mean ± S.D
# Experimental: as §1, §2, §3, §4, §5, §6
# In addition, when lactate dehydrogenase (LDH) was measured, there was no significant change in both test groups compared to before administration. Blood pH, bicarbonate (HCO3), and the anion gap were confirmed by a venous blood gas test, and there was no significant difference before and after administration (Table 4). […] In Table 4, all values are expressed as mean±S.D, and p-values less than 0.05 were considered statistically significant.
# [3] = test system: dogs with insulin-dependent diabetes mellitus (type 1 diabetes mellitus); experiment: Evaluation of side effects after administration of enavogliflozin with insulin (disease activity index, cystitis, hypoglycemia); format: in vivo, dog
# Experimental: as §1, §2, §3, §4
# (§7) A primary evaluation variable was whether blood fructosamine levels decreased without developing severe hypoglycemia or diabetic ketoacidosis (DKA) after the animals were randomly divided into groups. […] The diagnosis of diabetic ketoacidosis was evaluated based on the presence of anion-gap metabolic acidosis associated with excessive ketogenesis without other causes. […]
# [4] = test system: dogs with insulin-dependent diabetes mellitus (type 1 diabetes mellitus); experiment: Long-term effectiveness, enavogliflozin with insulin for up to 6 months; format: in vivo, dog
# Experimental: In addition, long-term effectiveness was confirmed by additionally administering enavogliflozin to the companion dogs participating in the clinical trial at the same usage and dosage (SID or TOD) for up to 6 months.
# as §6
# Furthermore, as a result of confirming the long-term effectiveness by administering enavogliflozin at the same usage and dose for up to 6 months, fasting blood glucose, fructosamine and insulin reduction rate were improved in all SID/TOD test groups.
# [5] = test system: dogs with insulin-dependent diabetes mellitus (type 1 diabetes mellitus); experiment: Evaluation of renal function (blood and urine tests) after administration of enavogliflozin; format: in vivo, dog; settings: after 8 weeks treatment, mean ± S.D
# Experimental: as §1, §2, §3, §4, §5, §6
# Changes in renal function before and after administration of enavogliflozin were confirmed through blood and urine tests. Blood test items include blood urea nitrogen (BUN), creatinine, symmetric di-methyl-arginine (SDMA), cystatin-C, beta-2-microglobulin (B2M) and N-acetyl-β-d-glucosaminidase (NAG). Urinalysis items include urine specific gravity (USG) and urine protein to creatinine (UPC) ratio.
# [6] = test system: dogs with insulin-dependent diabetes mellitus (type 1 diabetes mellitus); experiment: Evaluation of regulation of blood glucose after 8 weeks of enavogliflozin with insulin; format: in vivo, dog
# Experimental: as §1, §2, §3, §4, §5, §6
# The regulation of blood glucose before and after administration was confirmed through blood tests (fructosamine and fasting glucose) and the daily insulin dose. […] However, fructosamine concentration was improved (p=0.041). […] In addition, as a result of comparing the difference between the test groups at 8 weeks, there was no significant difference in fasting blood glucose, fructosamine, and insulin reduction rate. However, there was a tendency towards a decrease in the SID test group taking enavogliflozin once a day compared to the TOD test group taking enavogliflozin once every 3 days (FIGS. 2A to 2C).
# [7] = test system: dogs with insulin-dependent diabetes mellitus (type 1 diabetes mellitus); experiment: Evaluation of body weight and blood pressure after administration of enavogliflozin; format: in vivo, dog
# Experimental: as §1, §2, §3, §4, §7
# [8] = molecular target: T1, human SGLT2 (Homo sapiens, UniProt P31639); settings: disclosed in U.S. Patent Publication No. 2015/0152075; cited from earlier work
# T1 sequence (P31639 1-672): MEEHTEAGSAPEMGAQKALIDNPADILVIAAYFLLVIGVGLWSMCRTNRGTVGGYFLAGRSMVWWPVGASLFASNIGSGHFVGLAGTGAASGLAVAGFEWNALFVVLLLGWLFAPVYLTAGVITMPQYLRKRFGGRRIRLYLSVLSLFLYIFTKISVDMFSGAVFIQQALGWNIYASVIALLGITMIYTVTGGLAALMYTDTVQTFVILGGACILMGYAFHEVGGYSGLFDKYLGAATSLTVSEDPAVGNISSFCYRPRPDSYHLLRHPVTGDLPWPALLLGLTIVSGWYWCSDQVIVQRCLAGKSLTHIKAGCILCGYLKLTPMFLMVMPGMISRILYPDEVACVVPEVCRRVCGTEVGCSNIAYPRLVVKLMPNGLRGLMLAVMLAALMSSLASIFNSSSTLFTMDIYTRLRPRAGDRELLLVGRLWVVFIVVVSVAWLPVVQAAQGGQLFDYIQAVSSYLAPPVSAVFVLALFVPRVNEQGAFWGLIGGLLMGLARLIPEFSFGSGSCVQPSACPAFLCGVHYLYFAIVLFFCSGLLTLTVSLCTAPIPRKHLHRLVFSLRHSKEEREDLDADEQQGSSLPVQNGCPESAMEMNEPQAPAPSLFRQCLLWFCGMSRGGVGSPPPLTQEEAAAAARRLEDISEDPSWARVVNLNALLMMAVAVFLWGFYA
# [9] = SID test group, 0.025 mg/kg once a day with insulin
# [10] = TOD test group, 0.025 mg/kg once every 3 days with insulin
# [11] = SID administration group, 0.025 mg/kg once a day with insulin, up to 6 months (p<0.0234)
# [12] = TOD test group, 0.025 mg/kg once every 3 days with insulin, 8 weeks
# [13] = both groups (TOD and SID), 0.025 mg/kg with insulin, 8 weeks
smiles,measurement,setting,value
OC[C@H]1O[C@@H](c2cc(Cc3ccc(C4CC4)cc3)c(Cl)c3c2CCO3)[C@H](O)[C@@H](O)[C@@H]1O [enavogliflozin],Lipase,[1]; [9],226.8 ± 215.0 U/L
same,T-Chol (total cholesterol),[1]; [9],261.3 ± 150.5 mg/dL
same,Triglyceride,[1]; [9],515.2 ± 977.9 mg/dL
same,Lipase,[1]; [10],197.3 ± 230.1 U/L
same,T-Chol (total cholesterol),[1]; [10],327.6 ± 114.7 mg/dL
same,Triglyceride,[1]; [10],384.9 ± 425.3 mg/dL
same,Anion Gap,[2]; [9],13.2 ± 4.5 mmol/L
same,HCO3,[2]; [9],25.0 ± 2.5 mmol/L
same,Ketone (blood),[2]; [9],0.4 ± 0.1 mmol/L
same,LDH,[2]; [9],230.8 ± 79.6 U/L
same,pH (venous blood gas),[2]; [9],7.4 ± 0.1
same,Anion Gap,[2]; [10],12.0 ± 4.2 mmol/L
same,HCO3,[2]; [10],24.3 ± 3.6 mmol/L
same,Ketone (blood),[2]; [10],0.2 ± 0.1 mmol/L
same,LDH,[2]; [10],444.5 ± 584.7 U/L
same,pH (venous blood gas),[2]; [10],7.4 ± 0.1
same,diabetic ketoacidosis,"[2]; both test groups, eight weeks after administration",did not occur
same,new cases of bacterial cystitis,"[3]; any test group (TOD, SID), 8 weeks",no new cases
same,"disease activity index (appetite, activity, stool status)","[3]; dog, in vivo",no difference between before and after administration
same,severe hypoglycemia leading to loss of consciousness or seizures,"[3]; dog, in vivo",no severe hypoglycemia
same,"fasting blood glucose, 6 months",[4]; [11],statistically significant reduction
same,"insulin reduction rate, 6 months",[4]; [11],statistically significant reduction
same,"fructosamine, 6 months","[4]; TOD test group, 0.025 mg/kg once every 3 days with insulin, up to 6 months (p<0.0313)",statistically significant reduction
same,"fasting blood glucose, fructosamine and insulin reduction rate, 6 months","[4]; all SID/TOD test groups, 0.025 mg/kg with insulin, up to 6 months",improved
same,BUN,"[5]; SID test group (n = 8), 0.025 mg/kg once a day with insulin",21.9 ± 6.8 mg/dL
same,Creatinine,[5]; [9],0.6 ± 0.1 mg/dL
same,Cystatin-C,[5]; [9],0.5 ± 0.1 mg/L
same,NAG,[5]; [9],9.0±4.3 U/g
same,SDMA,[5]; [9],7.8 ± 1.4 µg/dL
same,UPC (urine protein to creatinine ratio),[5]; [9],1.1±1.6
same,USG (urine specific gravity),[5]; [9],1.043±0.008
same,BUN,"[5]; TOD test group (n = 10), 0.025 mg/kg once every 3 days with insulin",22.5 ± 11.7 mg/dL
same,Creatinine,[5]; [10],0.9 ± 0.2 mg/dL
same,Cystatin-C,[5]; [10],0.5 ± 0.2 mg/L
same,NAG,[5]; [10],7.6±5.8 U/g
same,SDMA,[5]; [10],9.2 ± 5.5 µg/dL
same,UPC (urine protein to creatinine ratio),[5]; [10],1.1±1.8
same,USG (urine specific gravity),[5]; [10],1.034±0.011
same,daily insulin dose,"[6]; SID test group, 0.025 mg/kg once a day with insulin, after 8 weeks (before: 2.0±0.8)",1.5±0.5 units/kg/day
same,fasting blood glucose,"[6]; SID test group, 0.025 mg/kg once a day with insulin, after 8 weeks (before: 330.8±118.0; p=0.0078)",215.5 ± 126.2 mg/dL
same,fructosamine levels,"[6]; SID test group, 0.025 mg/kg once a day with insulin, after 8 weeks (before: 475.3±107.6; p=0.034)",393.1 ± 122.9 µmol/L
same,"daily insulin dose, change before/after administration",[6]; [12],"decreased, but the difference was not statistically significant"
same,"fasting blood glucose, change before/after administration",[6]; [12],"decreased, but the difference was not statistically significant"
same,"fructosamine concentration, change before/after administration","[6]; TOD test group, 0.025 mg/kg once every 3 days with insulin, 8 weeks (p=0.041)",improved
same,"Blood pressure (systolic), change after administration","[7]; SID test group, 0.025 mg/kg once a day with insulin, 8 weeks (p=0.033)",significantly reduced
same,"BCS (body condition score), change after administration",[7]; [13],no difference
same,"Body weight, change after administration",[7]; [13],tended to decrease
same,inhibitory effect on human SGLT2 activity,[8],excellent inhibitory effect

# Reference: patent US20240245641A1, “PHARMACEUTICAL COMPOSITION FOR PREVENTING OR TREATING DIABETES MELLITUS IN ANIMAL OF FAMILY CANIDAE, COMPRISING ENAVOGLIFLOZIN” (DAEWOONG PHARMACEUTICAL CO., LTD., priority 2021, published 2024)
